The NIST ThermoML archive (doi:10.1016/j.fluid.2012.06.002)
Numbers after ± are expanded uncertainties.

Experiment: wn = mass fraction of the nth substance listed
Settings: 101 kPa, Liquid, pycnometer

mass density (298.15 K, w1 = 0.293) [kg/m3] | mass density (328.15 K, w1 = 0.436) [kg/m3] | mass density (298.15 K, w1 = 0.538) [kg/m3] | mass density (328.15 K, w1 = 0.734) [kg/m3] | SMILES
1164 ± 1 | 1258 ± 1 | – | – | N.O=P(O)(O)O [ammonium dihydrogen phosphate] + O
– | – | 1260 ± 1 | 1359 ± 2 | NC(N)=O.O=P(O)(O)O [urea phosphate] + O
